Source: US8580811B2 (Ligand Pharmaceuticals Incorporated, priority 2005, dated 2013)

Each compound was assayed against T1, human AR (Homo sapiens, UniProt P10275) (assay: IR Binding Assay: whole cell competitive binding of test compounds against 3H-DHT in COS-1 cells transfected with pRShAR).
T1 construct: expressed in transfected cells; host or cells: COS-1 cells
T1 sequence (P10275 1-920): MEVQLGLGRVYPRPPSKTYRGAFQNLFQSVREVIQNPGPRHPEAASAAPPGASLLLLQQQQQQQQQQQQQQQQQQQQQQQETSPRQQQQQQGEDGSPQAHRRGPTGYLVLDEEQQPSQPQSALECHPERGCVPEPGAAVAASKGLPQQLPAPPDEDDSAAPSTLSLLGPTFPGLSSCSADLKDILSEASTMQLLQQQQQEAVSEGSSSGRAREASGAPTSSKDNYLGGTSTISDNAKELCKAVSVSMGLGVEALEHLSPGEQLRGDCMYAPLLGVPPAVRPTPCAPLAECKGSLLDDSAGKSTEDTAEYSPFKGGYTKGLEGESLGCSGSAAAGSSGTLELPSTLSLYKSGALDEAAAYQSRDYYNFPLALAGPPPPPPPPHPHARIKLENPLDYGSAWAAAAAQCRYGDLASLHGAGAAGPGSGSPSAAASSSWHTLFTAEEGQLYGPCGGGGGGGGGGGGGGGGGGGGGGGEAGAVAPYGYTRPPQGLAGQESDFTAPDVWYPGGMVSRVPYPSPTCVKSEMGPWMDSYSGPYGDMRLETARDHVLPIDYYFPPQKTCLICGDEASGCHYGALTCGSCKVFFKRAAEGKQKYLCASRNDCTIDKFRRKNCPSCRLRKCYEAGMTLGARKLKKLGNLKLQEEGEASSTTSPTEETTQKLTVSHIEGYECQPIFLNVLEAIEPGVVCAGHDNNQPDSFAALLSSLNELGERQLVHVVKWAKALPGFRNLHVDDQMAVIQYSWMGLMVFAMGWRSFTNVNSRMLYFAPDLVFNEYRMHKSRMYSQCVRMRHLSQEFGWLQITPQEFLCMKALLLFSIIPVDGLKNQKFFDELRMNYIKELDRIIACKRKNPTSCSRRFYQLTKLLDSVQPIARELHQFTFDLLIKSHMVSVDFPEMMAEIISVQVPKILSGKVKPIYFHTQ
Outline: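 COS-1 cells transfected with pRShAR plus β-Gal reporter, serum-starved 24 h, then exposed to 1 nM ³H-DHT with compounds at 10^−10 to 10^−6 M for 3 h at 37 °C. Bound ³H-DHT counted in lysates, normalized to β-Gal. IC50 from log-logit plot; Ki via Cheng-Prusoff using Kd from Scatchard saturation analysis.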

Compound | Ki
CCc1c(-c2cccs2)n(CC(F)(F)F)c2ccc3[nH]c(=O)cc(Cl)c3c12 [Compound 209, 9-Chloro-1-ethyl-2-thien-2-yl-3-(2,2,2-trifluoroethyl)-3,6-dihydro-pyrrolo[3,2-f]quinolin-7-one] | < 5 nM
Cc1c(C)n(C[C@@H](O)CO)c2ccc3[nH]c(=O)cc(C(F)(F)F)c3c12 [Compound 296, (R)-3-(2,3-dihydroxypropyl)-1,2-dimethyl-9-trifluoromethyl-3,6-dihydro-pyrrolo[3,2-f]-quinolin-7-one] | > 10 nM
Cc1c(-c2nccs2)n(CC(F)(F)C(F)(F)F)c2ccc3[nH]c(=O)cc(Cl)c3c12 [Compound 262, 9-Chloro-1-methyl-3-(2,2,3,3,3-pentafluoropropyl)-2-(1,3-thiazol-2-yl)-3,6-dihydro-pyrrolo[3,2-f]quinolin-7-one] | 5 to 10 nM
Cc1c(C)n(C[C@H](O)CO)c2ccc3[nH]c(=O)cc(C(F)(F)F)c3c12 [Compound 295, (S)-3-(2,3-dihydroxypropyl)-1,2-dimethyl-9-trifluoromethyl-3,6-dihydro-pyrrolo[3,2-f]-quinolin-7-one] | > 10 nM
CC(=O)OCCn1c(C)c(C)c2c3c(C(F)(F)F)cc(=O)[nH]c3ccc21 [Compound 241, 3-(2-Acetoxyethyl)-1,2-Dimethyl-9-trifluoromethyl-3,6-dihydro-pyrrolo[3,2-f]quinolin-7-one] | 5 to 10 nM
CCC1c2c(ccc3[nH]c(=O)cc(Cl)c23)N(CC(F)(F)F)C1c1cccs1 (racemic) [Compound 164, (±)-9-Chloro-1-ethyl-2-(thien-2-yl)-3-(2,2,2-trifluoroethyl)-1,2,3,6-tetrahydro-pyrrolo[3,2-f]-quinolin-7-one] | < 5 nM
Cc1c(-c2cccc([N+](=O)[O-])c2)n(CC(F)(F)F)c2ccc3[nH]c(=O)cc(Cl)c3c12 [Compound 205, 9-Chloro-1-methyl-2-(3-nitrophenyl)-3-(2,2,2-trifluoroethyl)-3,6-dihydro-pyrrolo[3,2-f]quinolin-7-one] | 5 to 10 nM
O=c1cc(Cl)c2c3c(ccc2[nH]1)N(CC(F)(F)F)C1CCCCC31 (racemic) [Compound 133, (±)-9-Chloro-1,2-tetramethylene-3-(2,2,2-trifluoro-ethyl)-1,2,3,6-tetrahydro-pyrrolo[3,2-f]quinolin-7-one] | < 5 nM
CC1c2c(ccc3[nH]c(=O)cc(Cl)c23)N(CC(F)(F)F)C1c1ccccc1 (racemic) [Compound 130, (±)-9-Chloro-1-methyl-2-phenyl-3-(2,2,2-trifluoro-ethyl)-1,2,3,6-tetrahydro-pyrrolo[3,2-f]-quinolin-7-one] | 5 to 10 nM
Cc1ccc(-c2c(C)c3c4c(Cl)cc(=O)[nH]c4ccc3n2CC(F)(F)F)cc1 [Compound 204, 9-Chloro-1-methyl-2-(4-methylphenyl)-3-(2,2,2-trifluoroethyl)-3,6-dihydro-pyrrolo[3,2-f]-quinolin-7-one] | < 5 nM
Cc1c(-c2ccccc2)n(CCC(F)(F)F)c2ccc3[nH]c(=O)cc(Cl)c3c12 [Compound 217, 9-Chloro-1-methyl-2-phenyl-3-(3,3,3-trifluoropropyl)-3,6-dihydropyrrolo[3,2-f]-quinolin-7-one] | < 5 nM
CCC1C(C)c2c(ccc3[nH]c(=O)cc(C(F)(F)F)c23)N1CC(F)(F)C(F)(F)F (racemic) [Compound 179, (±)-2-Ethyl-1-methyl-3-(2,2,3,3,3-pentafluoropropyl)-9-trifluoromethyl-1,2,3,6-tetrahydro-pyrrolo[3,2-f]quinolin-7-one] | < 5 nM
CCC1C(C)c2c(ccc3[nH]c(=O)cc(C(F)(F)F)c23)N1CCCC(F)(F)F (racemic) [Compound 181, (±)-2-Ethyl-1-methyl-3-(4,4,4-trifluorobutyl)-9-trifluoromethyl-1,2,3,6-tetrahydro-pyrrolo[3,2-f]quinolin-7-one] | 5 to 10 nM
CCc1c(C)c2c3c(Cl)cc(=O)[nH]c3ccc2n1CC(F)(F)Cl [Compound 222, 9-Chloro-3-(2-chloro-2,2-difluoroethyl)-2-ethyl-1-methyl-3,6-dihydro-pyrrolo[3,2-f]-quinolin-7-one] | < 5 nM
CCc1c(-c2cccs2)[nH]c2ccc3[nH]c(=O)cc(Cl)c3c12 [Compound 123, 9-Chloro-1-ethyl-2-thien-2-yl-3,6-dihydro-pyrrolo[3,2-f]quinolin-7-one] | 5 to 10 nM
Cc1c(-c2ccccc2)n(C[C@H](O)C(F)(F)F)c2ccc3[nH]c(=O)cc(Cl)c3c12 [Compound 271, (S)-9-Chloro-1-methyl-2-phenyl-3-(3,3,3-trifluoro-2-hydroxy-propyl)-3,6-dihydro-pyrrolo[3,2-f]quinolin-7-one] | < 5 nM
O=c1cc(Cl)c2c(ccc3[nH]c4c(c32)CCCC4)[nH]1 [Compound 113, 9-Chloro-1,2-tetramethylene-3,6-dihydro-pyrrolo[3,2-f]quinolin-7-one] | > 10 nM
Cc1c(-c2cccc(C(F)(F)F)c2)n(CC(F)(F)F)c2ccc3[nH]c(=O)cc(Cl)c3c12 [Compound 201, 9-Chloro-1-methyl-2-(3-trifluoromethylphenyl)-3-(2,2,2-trifluoroethyl)-3,6-dihydro-pyrrolo[3,2-f]-quinolin-7-one] | > 10 nM
CC1c2c(ccc3[nH]c(=O)cc(Cl)c23)N(CC(F)(F)F)C1C (racemic) [Compound 127, (±)-9-Chloro-1,2-dimethyl-3-(2,2,2-trifluoro-ethyl)-1,2,3,6-tetrahydro-pyrrolo[3,2-f]quinolin-7-one] | 5 to 10 nM
CC1c2c(ccc3[nH]c(=O)cc(Cl)c23)N(CC(F)(F)F)C1c1ccc(Cl)c(Cl)c1 (racemic) [Compound 157, (±)-9-Chloro-2-(3,4-dichlorophenyl)-1-methyl-3-(2,2,2-trifluoroethyl)-1,2,3,6-tetrahydropyrrolo[3,2-f]quinolin-7-one] | < 5 nM
Cc1c(C)n(CC(F)F)c2ccc3[nH]c(=O)cc(Cl)c3c12 [Compound 191, 9-Chloro-3-(2,2-difluoroethyl)-1,2-dimethyl-3,6-dihydro-pyrrolo[3,2-f]quinolin-7-one] | < 5 nM
Cc1c(C)n(C[C@@H](O)CO)c2ccc3[nH]c(=O)cc(Cl)c3c12 [Compound 292, (R)-9-Chloro-3-(2,3-dihydroxypropyl)-1,2-dimethyl-3,6-dihydro-pyrrolo[3,2-f]-quinolin-7-one] | > 10 nM
Cc1c(-c2cccnc2)n(CC(F)(F)C(F)(F)F)c2ccc3[nH]c(=O)cc(Cl)c3c12 [Compound 264, 9-Chloro-1-methyl-3-(2,2,3,3,3-pentafluoropropyl)-2-(3-pyridyl)-3,6-dihydro-pyrrolo[3,2-f]quinolin-7-one] | < 5 nM
CC1c2c(ccc3[nH]c(=O)cc(Cl)c23)N(CCC(F)(F)F)C1C (racemic) [Compound 145, (±)-9-Chloro-1,2-dimethyl-3-(3,3,3-trifluoropropyl)-1,2,3,6-tetrahydro-pyrrolo[3,2-f]-quinolin-7-one] | < 5 nM
Cc1c(-c2ccc(F)cc2F)[nH]c2ccc3[nH]c(=O)cc(Cl)c3c12 [Compound 117, 9-Chloro-2-(2,4-difluorophenyl)-1-methyl-3,6-dihydro-pyrrolo[3,2-f]quinolin-7-one] | < 5 nM
CC1c2c(ccc3[nH]c(=O)cc(Cl)c23)N(CC(C)(C)C)C1C (racemic) [Compound 141, (±)-9-Chloro-1,2-dimethyl-3-(2,2-dimethylpropyl)-1,2,3,6-tetrahydro-pyrrolo[3,2-f]quinolin-7-one] | 5 to 10 nM
CCC1c2c(ccc3[nH]c(=O)cc(Cl)c23)N(CC(F)(F)F)C1C (racemic) [Compound 129, (±)-9-Chloro-1-ethyl-2-methyl-3-(2,2,2-trifluoro-ethyl)-1,2,3,6-tetrahydropyrrolo[3,2-f]-quinolin-7-one] | > 10 nM
CC1c2c(ccc3[nH]c(=O)cc(Cl)c23)N(CC(F)(F)F)C1c1cccc(C(F)(F)F)c1 (racemic) [Compound 159, (±)-9-Chloro-1-methyl-3-(2,2,2-trifluoroethyl)-2-(3-trifluoromethylphenyl)-1,2,3,6-tetrahydropyrrolo[3,2-f]quinolin-7-one] | > 10 nM
Cc1c(C)n(CC(F)(F)C(F)(F)F)c2ccc3[nH]c(=O)cc(C(F)(F)F)c3c12 [Compound 219, 1,2-Dimethyl-3-(2,2,3,3,3-pentafluoropropyl)-9-trifluoromethyl-3,6-dihydro-pyrrolo[3,2-f]-quinolin-7-one] | < 5 nM
CC1c2c(ccc3[nH]c(=O)cc(Cl)c23)N(CC(F)(F)F)C1c1ccc(O)cc1 (racemic) [Compound 155, (±)-9-Chloro-2-(4-hydroxyphenyl)-1-methyl-3-(2,2,2-trifluoroethyl)-1,2,3,6-tetrahydro-pyrrolo[3,2-f]quinolin-7-one] | > 10 nM
